This is an account of results in ChEMBL document CHEMBL6092209, “New Discorhabdin D Analogues from Latrunculia spp. Sponges” (2024).

The source made the active and inactive calls. The rule behind the calls is not given here.

The subject of test [1] is Panel NCI-60 (60 carcinoma cell lines). The test is described as follows: Growth inhibition of human Panel NCI-60 (60 carcinoma cell lines) cells. In kind it is functional.
Test [2] has the same test system. The test is described as follows: Growth inhibition of human Panel NCI-60 (60 carcinoma cell lines) cells at 10 uM. The class given is functional, cell-based.

Broadly, the GI50 is the concentration that inhibits growth by half.

Regarding `O=C1C2=C3C4=[N+](CCc5c[nH]c1c54)[C@@H]1C(=O)C=C4S[C@@H](C[C@@]43[C@H]1O)N2`, it took 0.79 µM to inhibit growth in test [1] by half (GI50).
Still for that read-out and setting: in the case of `Cn1cnc(S[C@H]2[C@H]3C(=O)C=C4S[C@H]5C[C@]42C2=C(N5)C(=O)c4[nH]cc5c4C2=[N+]3CC5)c1C[C@H](N)C(=O)O` it was greater than 10 µM.
In test [1], `N[C@@H](CS[C@H]1[C@H]2C(=O)C=C3S[C@H]4C[C@]31C1=C(N4)C(=O)c3[nH]cc4c3C1=[N+]2CC4)C(=O)NCC(=O)O` came in with a GI50 greater than 10 µM. Moreover, the outcome in test [2] was inactive.
`O=C(O)CN[C@H]1[C@H]2C(=O)C=C3S[C@H]4C[C@]31C1=C(N4)C(=O)c3[nH]cc4c3C1=[N+]2CC4` returned a GI50 in test [1] of 16.9 µM.
In turn, `N[C@H](CS[C@H]1[C@H]2C(=O)C=C3S[C@H]4C[C@]31C1=C(N4)C(=O)c3[nH]cc4c3C1=[N+]2CC4)C(=O)O` showed a GI50 in test [1] greater than 10 µM. The result in test [2] was inactive.
In test [1], `COC(=O)CN[C@H]1[C@H]2C(=O)C=C3S[C@H]4C[C@]31C1=C(N4)C(=O)c3[nH]cc4c3C1=[N+]2CC4` yielded a GI50 of 2.45 µM. This counts as single-digit micromolar.
On the same count and under the same terms, in the case of `O=C1C2=C3C4=[N+](CCc5c[nH]c1c54)[C@H]1C[C@@]34C[C@@H](N2)SC4=CC1=O` it was 0.8 µM.
In the case of `N[C@@H](CS[C@H]1[C@H]2C(=O)C=C3S[C@H]4C[C@]31C1=C(N4)C(=O)c3[nH]cc4c3C1=[N+]2CC4)C(=O)O`, the GI50 in test [1] was greater than 10 µM. Besides, in test [2], the result was inactive.
Regarding `N[C@@H](CCC(=O)N[C@@H](CS[C@H]1[C@H]2C(=O)C=C3S[C@H]4C[C@]31C1=C(N4)C(=O)c3[nH]cc4c3C1=[N+]2CC4)C(=O)NCC(=O)O)C(=O)O`, the GI50 in test [1] is greater than 10 µM. Besides, the outcome in test [2] was inactive.
For `COc1cccc2c1C(=O)c1c(O)c3c(c(O)c1C2=O)C[C@@](O)(C(=O)CO)C[C@@H]3O[C@H]1C[C@H](N)[C@H](O)[C@H](C)O1` [DOXORUBICIN], the GI50 in test [1] came to 0.12 µM.
In turn, `O=C1C=C(S[C@H]2[C@H]3C(=O)C=C4S[C@H]5C[C@]42C2=C(N5)C(=O)c4[nH]cc5c4C2=[N+]3CC5)[C@]2(C=C1Br)CCNC1=C2C2=NCCc3c[nH]c(c32)C1=O` registered a GI50 in test [1] of 4.8 µM. This GI50 lies about 40-fold higher than the previous one.
